# Test results reported in EP4371976B1, “IONIZABLE LIPIDS AND LIPID NANOPARTICLES CONTAINING THEREOF” (Certest Biotec, S.L., priority 2022, dated 2024).
# Tests used:
# [1] = RNA encapsulation efficiency of LNPs by Quant-IT Ribogreen; assay type: physicochemical; details: for Encaps. efficiency (%): LNPs with luciferase mRNA, ionizable lipid:non-cationic lipid:sterol:PEG-modified lipid 50:10:38.5:1.5, percentage of RNA entrapped in the LNP
# Protocol: The mRNA aqueous solution was then carefully added to the ethanol solution, and the resulted solution was homogenized by pipetting up and down for 4-5 times. The resulting LNPs were immediately diluted 1:1 with Tris buffer and dialyzed overnight against Tris buffer containing 15% sucrose. The resulting LNP solution was then collected, and the encapsulated mRNA was assessed by Quant-IT® Ribogreen (Invitrogen R11490) following the manufacturer's instructions.
# (§1) The LNP solution was then adjusted to a final concentration of mRNA of 100 µg/ml. Size distribution, polydispersity and Z-potential were measured by dynamic light scattering (DLS) using Malvern Zetasizer Advance Lab Blue Label. RNA encapsulation was assessed by Quant-IT® Ribogreen following the manufacturer's instructions.
# [2] = Size distribution, polydispersity and Z-potential of LNPs by dynamic light scattering (Malvern Zetasizer); assay type: physicochemical; details: LNPs, standard formulation 50:10:38.5:1.5; DLS
# Protocol: as §1
# [3] = Apparent pKa of LNPs comprising the ionizable lipid (Table 6); details: standard formulation 50:10:38.5:1.5
SMILES,Encaps. efficiency (%) [1],Z Potential (± D.E.) [mV] [2],Apparent pKa [3],P.D.I. [2],Particle size/ Ø (nm) [2],"Encaps. efficiency ([1]; Table 8, LNP 50:10:38.5:1.5, luciferase mRNA)"
CCCCCCCCOC(=O)CCSCCC(NC(=O)C(CCCCCC)CCCCCCCC)C(=O)NCCCN1CCOCC1 (stereo not shown) [VC-LC-0176],47.36%,-17.58 mV,5.77,,,
CCCCCCCCCCCCCCCCOC(=O)CCSCCC(NC(=O)C(CCCCCC)CCCCCCCC)C(=O)NCCN1CCN(C)CC1 (stereo not shown) [VC-LC-0185],70.97%,-1.54 mV,5.85,,,
CCCCCCCCC(CCCCCC)C(=O)NC(CCSCCC(=O)OCCCCCCC)C(=O)NCCCN(CCO)CCO (stereo not shown) [VC-LC-0207],93.61%,-0.83 mV,7.18,0.2,185.7 nm,
CCCCCCCCCCCCCCCCOC(=O)CCSCCC(NC(=O)C(CCCCCC)CCCCCCCC)C(=O)NCCCN1CCCC1 (stereo not shown) [VC-LC-0248],89.76%,4.52 mV,7.24,0.35,248 nm,
CCCCCCCCCCCCCOC(=O)CCSCCC(NC(=O)C(CCCCCC)CCCCCCCC)C(=O)NCCCn1ccnc1 (stereo not shown) [VC-LC-0256],92.30%,-15.91 mV,5.91,0.12,184.3 nm,
CCCCCCCCC(CCCCCC)C(=O)NC(CCSCCC(=O)OCC(CC)CCCC)C(=O)NCCCn1ccnc1 (stereo not shown) [VC-LC-0259],41.89%,-8.47 mV,6.21,0.14,138.8 nm,
CCCCCCCCC(CCCCCC)C(=O)NC(CCSCCC(=O)OCCCCCC)C(=O)NCCCn1ccnc1 (stereo not shown) [VC-LC-0268],29.52%,-10.85 mV,6.18,0.14,173 nm,
CCCCCCCC/C=C\CCCCCCCC(=O)NC(CCSCCC(=O)OCCCCCCCC(C)C)C(=O)NCCCN(CCO)CCO (stereo not shown) [VC-LC-0292],94.63%,7.79 mV,7.06,0.18,177.7 nm,
CCCCCCCCCCCCCCOC(=O)CCSCC(CC(=O)NCCCn1ccnc1)C(=O)OC(CCCCCCCC)CCCCCCCC (stereo not shown) [VC-LC-0299],57.64%,-13.45 mV,6.09,0.15,193.3 nm,
CCCCCCCCC(CCCCCCCC)OC(=O)C(CSCCC(=O)OCCCCCC)CC(=O)NCCCn1ccnc1 (stereo not shown) [VC-LC-0306],45.62%,-12.78 mV,5.70,0.09,184.2 nm,
CCCCCCCC/C=C\CCCCCCCC(=O)NC(CCSCC(=O)OCCCCCCCCCCCCC)C(=O)NCCCN1CCOCC1 (stereo not shown) [VC-LC-0338],62.80%,-5.38 mV,6.64,0.14,146.3 nm,
CCCCCCCC/C=C\CCCCCCCCOC(=O)CCSCCC(NC(=O)C(CCCCCC)CCCCCCCC)C(=O)NCCCN1CCOCC1 (stereo not shown) [VC-LC-0361],41.05%,-12.18 mV,5.29,0.18,169.3 nm,
CCCCCCCCC(CCCCCCCC)OC(=O)C(CCSCCC(=O)OCCCCCCCC(C)C)C(=O)NCCCn1ccnc1 (stereo not shown) [VC-LC-0364],78.29%,-14.33 mV,6.38,0.13,116.8 nm,
CCCCCCCCC(CCCCCCCC)OC(=O)C(CCSCCC(=O)OCC(CC)CCCC)C(=O)NCCCn1ccnc1 (stereo not shown) [VC-LC-0365],66.86%,-17.43 mV,6.33,0.24,124.1 nm,
CCCCCCCCCCCCCCCCCCOC(=O)CCSCCC(NC(=O)CCCCCCCCCCCCCCCCC)C(=O)NCCCN1CCOCC1 (stereo not shown) [VC-LC-0380],71.74%,-17.08 mV,,0.25,170.6 nm,
CCCCCCCCCCCCCCCCCC(=O)NC(CCSCCC(=O)OCCCCCCCCCCCCC)C(=O)NC1CCN(C)CC1 (stereo not shown) [VC-LC-0435],99.22%,8.58 mV,,0.2,182.6 nm,
CCCCCCCC#CCOC(=O)CCSCCC(NC(=O)CCCCCCCCCCCCCCCCC)C(=O)NC1CCN(C)CC1 (stereo not shown) [VC-LC-0437],99.92%,7.76 mV,,0.23,152 nm,
CCCCCCCC/C=C\CCCCCCCCOC(=O)CCSCCC(C(=O)NC1CCN(C)CC1)C(=O)OC(CCCCCCCC)CCCCCCCC (stereo not shown) [VC-LC-0443],86.01%,-2.92 mV,,0.13,181.3 nm,86.01%
CCCCCCCCCCCCCOC(=O)CCSCC(CC(=O)NC1CCN(C)CC1)C(=O)OCC(CCCCCC)CCCCCCCC (stereo not shown) [VC-LC-0524],97.01%,3.83 mV,,0.15,129.9 nm,
CCCCCCCCC(CCCCCC)COC(=O)C(CSCCC(=O)OCCCCCCCC(C)C)CC(=O)NC1CCN(C)CC1 (stereo not shown) [VC-LC-0526],97.90%,3.68 mV,,0.16,124.7 nm,
CCCCCCCCCCCCOC(=O)CCSCC(CC(=O)NC1CCN(C)CC1)C(=O)OCC(CCCCCC)CCCCCCCC (stereo not shown) [VC-LC-0528],98.83%,4.55 mV,,0.2,137.4 nm,
CCCCCCCCCCCCCCCCCCOC(=O)CCSCC(CC(=O)NC1CCN(C)CC1)C(=O)OCC(CCCCCC)CCCCCCCC (stereo not shown) [VC-LC-0530],97.41%,7.65 mV,,0.26,164 nm,
CCCCCCCCCCCCCCCCOC(=O)CCSCC(CC(=O)NC1CCN(C)CC1)C(=O)OCC(CCCCCC)CCCCCCCC (stereo not shown) [VC-LC-0531],98.54%,9.15 mV,,0.19,158.6 nm,
CCCCCCCCCCCCCCCCCCCCCCOC(=O)CCSCC(CC(=O)NC1CCN(C)CC1)C(=O)OCC(CCCCCC)CCCCCCCC (stereo not shown) [VC-LC-0533],98.35%,5.74 mV,,0.19,178.1 nm,
CCCCCCCCCCCCCOC(=O)CCSCCC(NC(=O)C(CCCCCCCC)CCCCCCCCCC)C(=O)NC1CCN(C)CC1 (stereo not shown) [VC-LC-0556],54.53%,-7.57 mV,,0.14,156.7 nm,
CCCCCCCCCCCCOC(=O)CCSCCC(C(=O)NCCCN1CCOCC1)C(=O)OCC(CCCCCC)CCCCCCCC (stereo not shown) [VC-LC-0609],54.21%,-20.42 mV,,0.16,168.6 nm,
